Experimental findings from a melting point compilation (Tetko et al.; mined from patent text by program, amines drawn as free bases though some values may be those of a salt) are described below.

Where only a bound is given, the exact number is not on record here.

`Cc1nc(N2CCN(Cc3ccccc3)C2=O)sc1C(=O)NCc1ccccc1F` had a melting point of 167 to 168 °C.

On to `CCN(CC)C(=O)CCS(=O)c1cc(-c2ccccc2)nc2ccccc12` (stereo not drawn), for which the melting point came to 130 °C.

Consider `N#CC(OC(=O)CC=Cc1ccccc1)c1ccc2ccccc2c1` (stereo not drawn), for which the melting point is 74 to 75 °C.

Molecule `CC(CCNC(=O)c1ccc(Cl)s1)n1ccnc1` (stereo not drawn) had a melting point of 141 to 143 °C.

The molecule `CS(=O)c1ccc(CSc2nc(-c3ccc(F)cc3)c(-c3ccnc(Cl)c3)[nH]2)cc1` (stereo not drawn) returned a melting point of 179 °C.

On to `COC(=O)C=Cc1ccc(OCCN(C)c2ccccn2)c(F)c1`, for which the melting point lay within 110 to 111 °C.

`Cc1ccc(S(=O)(=O)OC[C@H](O)c2ccc(OCc3ccccc3)cc2)cc1` showed a melting point of 91 to 92 °C.

On to `CCCCOc1c(CNC(=O)OC(C)(C)C)n(CC(C)C)c(=O)c2ccc(-c3nc(C#N)cs3)cc12`, for which the melting point was in the range of 160 to 161 °C.

Take `COc1ccc2cc(C(=O)CCCCC(=O)N(C)O)ccc2c1`: the melting point lay within 116 to 118 °C.

`CC(C)C[C@H](NC(=O)OCc1ccccn1)C(=O)N[C@@H](C(C)C)[C@H](O)c1c(-c2ccccc2)c1=O` returned a melting point of 52 to 59 °C.

`Cc1ccc(F)c(-c2cc(Nc3ccnc4cn(CC(O)CO)nc34)ccn2)n1` (stereo not drawn) came in with a melting point of 182 to 184 °C.

Take `CC(=O)N(C)c1nc(CN2CCN(C(c3ccccc3)c3ccccc3)CC2)cs1`: the melting point lay within 140 to 142 °C.

As to `COc1ccc(C(=O)N2C(=O)CCC2CCC(=O)OCc2ccccc2)cc1OCc1ccccc1` (stereo not drawn), the melting point was 92 to 95 °C.

For `CC(=O)OCCOCn1c(=O)sc2c(=O)[nH]c(N)nc21`, the melting point lay in the range of 173 to 176 °C.

`O=C(CCl)c1ccc2cc(O)c(O)cc2c1` registered a melting point of more than 320 °C.

Consider `O=C(NCc1cccnc1)N(c1ccccc1)c1ccccc1`, for which the melting point was 143 °C.

Molecule `Cc1cnc(N2CCN(CC[C@H]3CC[C@H](NC(=O)CC4CCOCC4)CC3)CC2)c2c1OCC2` had a melting point of 199 °C.

In turn, `Nc1cccc(Oc2ccc(C(c3ccc(Oc4cccc(N)c4)cc3)(C(F)(F)F)C(F)(F)F)cc2)c1` had a melting point of 137 to 139 °C.

The molecule `Cc1c(C(=O)CS(=O)(=O)Cc2ccc(Cl)cc2)sc2ccc(Cl)cc12` came in with a melting point of 204 to 206 °C.

In turn, `CN1C(=O)C(F)N=C(c2ccccc2)c2cc(Cl)ccc21` (stereo not drawn) displayed a melting point of 145 to 147 °C.

Take `CC(CS)C(=O)Nc1cccc(C(=O)O)n1` (stereo not drawn): the melting point fell in the range of 178 to 179 °C.

Consider `NCc1ccc(Nc2ncnc3[nH]cc(C(=O)c4ccccc4)c23)cc1`, for which the melting point is 255 to 257 °C.

The molecule `S=C1CN=C(c2ccccc2)c2ccsc2N1` yielded a melting point of 208 to 210 °C.

Regarding `CCCCC1CCC2NC(=O)CC2C1` (stereo not drawn), the melting point was in the range of 109 to 111 °C.

In the case of `CCOCC(C)Oc1ccc(COc2cnn(C(C)(C)C)c(=O)c2Cl)cc1` (stereo not drawn), the melting point is 72.3 to 73.1 °C.

As to `COc1nc(OC)nc(OC(C(=O)OCc2ccccc2)C(C)(C)C)n1` (stereo not drawn), the melting point lay in the range of 63 to 66 °C.

In turn, `Cc1ccc(S(=O)(=O)NC(=O)c2nc(Cl)c(Cl)[nH]2)cc1` showed a melting point of 238 °C.

Molecule `COC(=O)CS(=O)(=O)N1CC=C(c2ccc(Br)c(C)c2)CC1` came in with a melting point of 110 to 112 °C.

For the molecule `Cc1cnc2c(=O)[nH]c3cc(Cl)c(Cl)cc3n12`, the melting point was more than 300 °C.

The molecule `CC(=O)NC=Cc1ccc(OCC(O)CNC(C)C)cc1` (stereo not drawn) registered a melting point of 144 to 146 °C.

For `COC1C(O)C(CO)OC1n1cc(C)c(=O)[nH]c1=O` (stereo not drawn), the melting point lay in the range of 192 to 193 °C.

In turn, `CO/C=C1/C(=O)NC(=O)c2ccc(Br)cc21` came in with a melting point of 210 to 211 °C.

`CCNC(=N)N1CCc2[nH]cnc2C1CC` (stereo not drawn) showed a melting point of 275 °C.

Take `CC(=O)NC[C@H]1CN(c2ccc(N3CCS(=O)(=O)CC3)c(F)c2)C(=O)O1`: the melting point was 202 to 203 °C.

As to `COc1ccc2occ(CCN3CCN(c4cc(Cl)cc5cccnc45)CC3)c2c1`, the melting point was 72 °C.

Regarding `O=S(=O)(c1cccc2ccccc12)c1n[nH]c2ccc(OCC3CCCNC3)cc12` (stereo not drawn), the melting point lay within 168 to 170 °C.

As for `CN(c1ccc(S(C)(=O)=O)cc1)S(=O)(=O)c1cccc(NC(=O)c2ccc(S(C)(=O)=O)cc2)c1`, the melting point was 213 to 215 °C.

`O=C(Nc1nc2ccc(C(F)(F)F)cc2s1)c1c(F)cccc1Cl` showed a melting point of 265 to 270 °C.

Molecule `C=CCOc1cccc(-n2cnc(-c3nc(CC)no3)c2)c1` returned a melting point of 73 to 74 °C.

In turn, `O=[N+]([O-])c1cnc(Sc2nccnc2Cl)s1` came in with a melting point of 139 to 141 °C.

Regarding `Cc1c(-c2cccnc2)sc2nc(N)[nH]c(=O)c12`, the melting point lay in the range of 280 to 290 °C.

The molecule `C[C@@H](N(CC(=O)O)C(=O)c1ccc(OCC(F)(F)F)cc1)[C@](O)(Cn1cncn1)c1ccc(F)cc1F` (relative stereo) displayed a melting point of 168 to 177 °C.

`CC1CCCN(c2c(Br)cc3c4c(cccc24)C(=O)N(O)C3=O)C1` (stereo not drawn) registered a melting point of more than 250 °C.

`CCN(CC)CCNC(=O)c1ccc(S(N)(=O)=O)cc1` gave a melting point of 174 to 176 °C.

`Cc1nnc(COc2cccc(NC(=O)N(C)C)c2)o1` had a melting point of 102 to 105 °C.

Turning to `O=C(O)c1c(Br)ccc(OCc2ccccc2Cl)c1OCc1ccccc1Cl`, the melting point was 156 to 158 °C.

As to `CSC1C(=O)Nc2cccc(-c3ccccc3)c21` (stereo not drawn), the melting point was 182 to 185 °C.

For the molecule `CN[C@@H]1CN(c2nc3c(cc2F)c(=O)c(C(=O)O)cn3C(C)(C)C)[C@H]1C` (relative stereo), the melting point fell in the range of 185 to 187 °C.

`CN1CCN(C(=O)c2cccc3cc[nH]c23)CC1` registered a melting point of 176 to 178 °C.

`CCOC(=O)/C(=N\OC(C)(CC)C(=O)OC(C)(C)C)c1csc(NC(c2ccccc2)(c2ccccc2)c2ccccc2)n1` (stereo not drawn): the melting point lay in the range of 122 to 125 °C.

`COc1ccc(/C=C/c2nc3c(c(=O)n(C)c(=O)n3C)n2C)c(OC)c1C` displayed a melting point of 253 to 254 °C.

In the case of `Oc1ccc(-c2c3ccccc3cc3sc4ccccc4c23)cc1I`, the melting point fell in the range of 125 to 128 °C.

On to `CCCCOCCOc1ccc(-c2ccc(N3CCCCC3C)c(C=CC(=O)O)c2)cc1` (stereo not drawn), for which the melting point is 106 to 108 °C.

For the molecule `CC1CN(C(P(=O)(O)O)P(=O)(O)O)CC(C)S1` (stereo not drawn), the melting point was in the range of 219 to 220 °C.

For `OCc1cc2cc(Cl)cc(Br)c2o1`, the melting point was in the range of 123 to 126 °C.

`Cc1c(OCc2ccccc2)ccc2cncn12` yielded a melting point of 52 to 54 °C.

As to `Cc1[nH]c(=O)c2ccccc2c1CC(=O)O`, the melting point was in the range of 280 to 295 °C.

In turn, `NC(=O)Cc1ccc(OCC(O)CNCCCn2cnc3ccccc32)cc1` (stereo not drawn) yielded a melting point of 92 to 96 °C.

The molecule `COC(=O)NC(=O)c1ccc(C=NO)cc1C` displayed a melting point of 141 to 143 °C.

Molecule `C[C@H](CC(=O)[C@H](Cc1ccccc1)OC(=O)c1ccccc1)C(=O)N1CCC[C@H]1C(=O)O` displayed a melting point of 130 to 134 °C.

Consider `CCOC(=O)c1cc(-c2ccc(OC)cc2)[nH]c1N`, for which the melting point is 141 to 142 °C.

With `CC(C)C(C(=O)O)c1ccc(O)c([N+](=O)[O-])c1` (stereo not drawn), the melting point is 103 to 105 °C.

The molecule `COc1ccc2c(c1)C(CCNC(=O)C(F)(F)F)=C(c1ccccc1)C2` gave a melting point of 138 to 139 °C.

The molecule `Nc1ccc(-c2ccc(N)cc2C(=O)OCCCCCCOc2ccc(-c3ccccc3)cc2)c(C(=O)OCCCCCCOc2ccc(-c3ccccc3)cc2)c1` yielded a melting point of 122 to 124 °C.

`CCOC(=O)c1ccn2c(=O)c(CC)c(C)nc2c1` returned a melting point of 95 to 96 °C.

With `COc1cn(-c2ccc(N3CCNC3=O)cc2F)nc(-c2ccnn2-c2ccccc2)c1=O`, the melting point fell in the range of 259 to 260 °C.

On to `C=C(C)C(=O)Nc1cccc2c(O)cccc12`, for which the melting point lay within 223 to 224 °C.

`C=CCC1C2CCC(C2)C1NC(=O)OCc1ccccc1` (stereo not drawn): the melting point came out at 70 °C.

In turn, `CNC(=O)c1ccc(F)c2c1CC(N(CCCc1c[nH]c3ccc(F)cc13)C1CCC1)CO2` (stereo not drawn) returned a melting point of 132 °C.

`O=C(O)c1cc(-c2ccc(Cl)cc2)nc(-c2ccc(Oc3ccc(F)cc3)cc2)c1` had a melting point of 201 to 202 °C.

With `CCSc1cc2c(cc1SCC)C(=O)c1c(c(Cl)c3cc(SCC)c(SCC)cc3c1Cl)C2=O`, the melting point was more than 260 °C.

The molecule `COc1cc2nc(COc3ccc(CC4SC(=O)NC4=O)cc3)n(C)c(=O)c2cc1OC` (stereo not drawn) registered a melting point of 252 °C.

Regarding `CCOC(=O)c1cc(OC)c(C(=O)OCC)cc1Br`, the melting point fell in the range of 61 to 63 °C.

In turn, `COC(=O)C1C=CCN2C(=O)C(CCSC(C)=O)(Cc3ccccc3)C(=O)N12` (stereo not drawn) yielded a melting point of 161 to 162 °C.

Consider `Cc1cccc(S(=O)(=O)NC(=O)NCCCCCCNC(=O)NS(=O)(=O)c2cccc(Cl)c2)c1`, for which the melting point fell in the range of 187 to 189 °C.

On to `Cc1ccc(-c2nc(-c3ccc(C)cc3)nc(-c3ccc(C)cc3)n2)cc1`, for which the melting point was 282 to 285 °C.

As for `Cc1cc(-c2ccccc2)nc(-c2cccc([N+](=O)[O-])c2)c1C(=O)NCCN1CCOCC1`, the melting point lay in the range of 147 to 148 °C.

For the molecule `Cc1ccc(C(=O)c2ccc(Cc3ccc(N)cc3)n2C)c(C)c1`, the melting point stood at 108 °C.

Molecule `Cc1cccc(NC(=O)NCCC(=O)N(c2ccccc2)c2ccccc2)c1` displayed a melting point of 179 °C.

On to `S=C1CC(c2ccccc2)=Nc2ccccc2N1`, for which the melting point was 228 to 230 °C.

In turn, `CSc1cc(C)nc(SC)c1NC(=O)CCCCCSc1nc2ncccc2o1` had a melting point of 132 to 133 °C.

Turning to `C(=C\c1cc(/C=C/c2c[nH]c3ccccc23)n[nH]1)/c1ccc(OCc2ccccn2)cc1`, the melting point is 196 to 199 °C.

In turn, `CCOC(=O)C(c1c(Cl)ccc(Cl)c1Cl)N(C(=O)CCl)c1ccc(Br)cc1` (stereo not drawn) had a melting point of 141 °C.

In turn, `O=C(O)CN1C(=O)C(=Cc2ccccc2)SC1=S` yielded a melting point of 254 to 256 °C.

Molecule `O=c1ccc(-c2c(-c3ccccc3)nn3ccccc23)nn1C1CCCCC1` had a melting point of 115 to 117 °C.

Molecule `O=c1[nH]c2ccc(C(F)(F)F)cc2c(-c2cc(Cl)ccc2O)c1NCc1ccccc1` registered a melting point of 215 to 217 °C.

In the case of `CN(C)Cc1nnc2n1-c1ccc(Cl)cc1C(c1ccccc1)=[N+]([O-])C2`, the melting point lay in the range of 217 to 219 °C.

In turn, `CCC(CC)Nc1nc(C)nc(Oc2c(C)cc(C)cc2C)c1N` displayed a melting point of 248 to 250 °C.

One may read the melting point as the temperature, or range, at which the solid turns liquid.
